# Assays:
# osteocalcin = experiment: Osteocalcin immunoradiometric assay; assay type: in vivo, B6C3F1 mice; conditions: 160 mg/kg i.p. 15 d
# Procedure: Osteocalcin measurement: Intact serum Osteocalcin was measured using an immunoradiometric assay (IRMA, Immutopics, San Clemente, Calif.). Assay sensitivity was 0.4 ng/ml and the intra-assay coefficient of variation was 6.7%.
# androstenedione = experiment: Circulating androstenedione RIA; assay type: in vivo, B6C3F1 mice; conditions: 160 mg/kg 15 d
# Procedure: Treatment: Immature mice (d28) were weighed and injected i.p. with either 80 mg/kg (1, 2, or 3 times daily), 160 mg/kg (1 or 2 times daily), or 240 mg/kg (once daily) with VCD or sesame oil (vehicle control, i.p.) for 15 d resulting in a total daily exposure of 80, 160, 240, or 320 mg/kg (n=6/group). All reagents were obtained from Sigma-Aldrich (St. Louis, Mo.). Estrous cycles of each animal were monitored daily by vaginal cytology from date of vaginal opening to persistent diestrus in VCD-treated mice, and from date of vaginal opening to d120 in controls. On d8, d10, d12, d14, d15, d30, d37, d46, d57 and d120, animals were weighed, euthanized by CO2 inhalation, and the ovaries, liver and trunk blood were collected. […] At each time point, adrenals, kidneys, uteri, ovaries, liver, and spleen were removed, grossly examined for lesions and wet tissue weights were recorded. […]
# Hormone Assays: Plasma FSH was measured by radioimmunoassay (RIA). […] Tubes were centrifuged for 15 minutes at 3000 rpm, supernatant was decanted and pellets were counted in a gamma counter for 1 minute each. […] Plasma 17β-estradiol was measured in unextracted plasma by radioimmunoassay (Diagnostic Products Inc., CA). […] Circulating androstenedione was measured by specific RIA. […] The results of all RIAs were calculated by four-parameter logistic analysis using the software AssayZap (BioSoft, Ferguson, Mo.). […]
# ovarian follicles [1] = conditions: cited from earlier work
# [2] = intravenous 14C-tagged VCD, cited from earlier work
# ovarian follicles [3] = experiment: Follicle depletion by other routes and vehicles; assay type: in vivo; conditions: i.p. injection in DMSO vehicle
# caspase-3 = experiment: Caspase-3 protease activity in isolated small pre-antral follicles; assay type: in vivo, B6C3F1 mice
# Procedure: Follicle Isolation: Small preantral follicles (fraction 1, 25-100 μm in diameter), were prepared by gentle enzymatic dissociation of ovaries and hand sorting with micropipettes. Pools of follicles were prepared from both ovaries of six mice in each treatment (control or VCD) for each observation. Following isolation, follicles were washed twice with M199 medium and stored at −20° C.
# Caspase-3 Protease Activity Measurement: The cleavage activity of caspase-3 was measured by a fluorescent activity assay. Briefly, the enzymatic reaction was carried out at 37° C. in protease assay buffer (20 mM HEPES, 100 mM NaCl, 10 mM dithiothreitol, 1 mM EDTA, 0.1% [w/v] 3-3 ([3-cholamidopropyl] dimethylammonio)-1-propanesulfanate, and 10% sucrose pH 7.2). Cellular protein (60-180 μg) was incubated with 50 μM of caspase-3 substrate, DEVD-AMC, at 37° C. for 60 minutes. Substrate cleavage was detected by measurement of the fluorescence of free 7-amino-4-methylcoumarin (AMC) with an F-2000 fluorescence spectrophotometer (Hitachi, Ltd., Tokyo, Japan) at 460 nm emission upon excitation at 380 nm.
compound,measurement,setting,value
"C1CC2OC2CC1C1CO1 (stereo not shown) [VCD, 4-vinylcyclohexene diepoxide]",Plasma osteocalcin,osteocalcin; d46,131.3 ± 5.4 ng/mL
same,Plasma osteocalcin,osteocalcin; d58,156.3 ± 6.1 ng/mL
same,Plasma osteocalcin,osteocalcin; d120 (not different from control),143.4 ± 7.1 ng/mL
same,Relative abundance of androgen versus estrogen,androstenedione; d46,97 % of androgen plus estrogen
same,Circulating androstenedione,"androstenedione; d46, plasma pools",0.73 ± 0.05 ng/mL
same,Premature ovarian failure in long term studies,ovarian follicles [1]; F344 rats dosed with VCD,premature ovarian failure occurred within a year
same,Number of primordial and primary follicles compared to vehicle controls,"ovarian follicles [1]; rats, 12 days of dosing",significant reduction
same,Numbers of secondary follicles,"ovarian follicles [1]; rats, 30 days of dosing",significant reduction
same,Half life,[2]; blood,4.4 min
same,Mean residence time,[2],4.7 min
same,Follicular depletion with DMSO vehicle versus sesame oil,ovarian follicles [3],achieves the same follicular depletion
same,Cleavage activity of caspase-3 in isolated small pre-antral follicles relative to controls,"caspase-3; 160 mg/kg or 80 mg/kg i.p., 10 d, 4 hours after final treatment",increased
same,Caspase-3 activity in small pre-antral (primordial and primary) follicles,"caspase-3; 160 mg/kg/day i.p., 10 d of dosing",14.37 flourescent units/40 μg protein

# — US7638678B2, “Animal model for perimenopause and menopause and methods of inducing ovarian failure” (The Arizona Board of Regents, priority 2002, dated 2009)
